Measurements reported in US20090111837A1, “USE OF PDE7 INHIBITORS FOR THE TREATMENT OF NEUROPATHIC PAIN” (priority 2005, published 2009).

Columns and labels:
[1] = system: CCI-induced static allodynia; test: Static allodynia (von Frey hairs) in the chronic constriction injury (CCI) rat model of neuropathic pain; format: in vivo
Experimental: Male Sprague Dawley rats weighing 150-400 g obtained from Charles River (Manston, Kent, UK.) were housed in groups of 4. All animals were kept under a 12 h light/dark cycle (lights on at 07 h 00 min) with food and water ad libitum. All experiments were carried out by an observer blind to the treatments and in accordance with the Home Office Animals (Scientific Procedures) Act 1986.
The CCI of sciatic nerve was performed as previously described by Bennett and Xie (Bennett G J, Xie Y K. A peripheral mononeuropathy in rat that produces disorders of pain sensation like those seen in man. Pain: 33:87-107, 1988). Animals were anaesthetised with a 2% isofluorane/O2 mixture. The right hind thigh was shaved and swabbed with 1% iodine. Animals were then transferred to a homeothermic blanket for the duration of the procedure and anaesthesia maintained during surgery via a nose cone. The skin was cut along the line of the thighbone. The common sciatic nerve was exposed at the middle of the thigh by blunt dissection through biceps femoris. About 7 mm of nerve was freed proximal to the sciatic trifurcation, by inserting forceps under the nerve and the nerve gently lifted out of the thigh. Suture was pulled under the nerve using forceps and tied in a simple knot until slight resistance was felt and then double knotted. The procedure was repeated until 4 ligatures (4-0 silk) were tied loosely around the nerve with approx 1 mm spacing. The incision was closed in layers.
Animals were habituated to wire bottom test cages prior to the assessment of allodynia. Static allodynia was evaluated by application of von Frey hairs (Stoelting, Wood Dale, Ill., USA.) in ascending order of force (0.6, 1, 1.4, 2, 4, 6, 8, 10, 15 and 26 grams) to the plantar surface of hind paws. Each von Frey hair was applied to the paw for a maximum of 6 sec, or until a withdrawal response occurred. Once a withdrawal response to a von Frey hair was established, the paw was re-tested, starting with the filament below the one that produced a withdrawal, and subsequently with the remaining filaments in descending force sequence until no withdrawal occurred. The highest force of 26 g lifted the paw as well as eliciting a response, thus represented the cut off point. Each animal had both hind paws tested in this manner. The lowest amount of force required to elicit a response was recorded as paw withdrawal threshold (PWT) in grams. Static allodynia was defined as present if animals responded to a stimulus of, or less than, 4 g, which is innocuous in naive rats (Field M J, Bramwell S, Hughes J, Singh L. Detection of static and dynamic components of mechanical allodynia in rat models of neuropathic pain: are they signalled by distinct primary sensory neurones? Pain, 1999; 83:303-11).
All the experiments were conducted in blind. When the experiment was carried out in more then one day and where technically possible, all groups occurred on each day with equal replication. Static allodynia was expressed as median [LQ; UQ] and analysed by Mann Whitney U test. Dynamic allodynia was expressed as arithmetic mean±SEM and analysed by ANOVA.

[2] = system: CCI-induced dynamic allodynia; test: Dynamic allodynia (cotton bud stroking) in the chronic constriction injury (CCI) rat model of neuropathic pain; format: in vivo
Experimental: Male Sprague Dawley rats weighing 150-400 g obtained from Charles River (Manston, Kent, UK.) were housed in groups of 4. All animals were kept under a 12 h light/dark cycle (lights on at 07 h 00 min) with food and water ad libitum. All experiments were carried out by an observer blind to the treatments and in accordance with the Home Office Animals (Scientific Procedures) Act 1986. The CCI of sciatic nerve was performed as previously described by Bennett and Xie (Bennett G J, Xie Y K. A peripheral mononeuropathy in rat that produces disorders of pain sensation like those seen in man. Pain: 33:87-107, 1988). Animals were anaesthetised with a 2% isofluorane/O2 mixture. The right hind thigh was shaved and swabbed with 1% iodine. Animals were then transferred to a homeothermic blanket for the duration of the procedure and anaesthesia maintained during surgery via a nose cone. The skin was cut along the line of the thighbone. The common sciatic nerve was exposed at the middle of the thigh by blunt dissection through biceps femoris. About 7 mm of nerve was freed proximal to the sciatic trifurcation, by inserting forceps under the nerve and the nerve gently lifted out of the thigh. Suture was pulled under the nerve using forceps and tied in a simple knot until slight resistance was felt and then double knotted. The procedure was repeated until 4 ligatures (4-0 silk) were tied loosely around the nerve with approx 1 mm spacing. The incision was closed in layers. Dynamic allodynia was assessed by lightly stroking the plantar surface of the hind paw with a cotton bud. To avoid recording general motor activity, care was taken to perform this procedure in fully habituated rats that were not active. At least two measurements were taken at each time point, the mean of which represented the paw withdrawal latency (PWL). […] A pain withdrawal response was often accompanied with repeated flinching or licking of the paw. Dynamic allodynia was considered to be present if animals responded to the cotton stimulus within 8 sec of commencing stroking (Field et al, 1999). All the experiments were conducted in blind. When the experiment was carried out in more then one day and where technically possible, all groups occurred on each day with equal replication. Static allodynia was expressed as median [LQ; UQ] and analysed by Mann Whitney U test. Dynamic allodynia was expressed as arithmetic mean±SEM and analysed by ANOVA.

[3] = CCI rats, PO, 0.3, 1 and 3 mg/kg
[4] = CCI rats, PO, post administration
[5] = CCI rats, oral (PO), doses 0.3, 1 and 3 mg/kg
[6] = highest dose (3 mg/kg PO) vs gabapentin 100 mg/kg PO
[7] = highest dose (3 mg/kg PO), post dose, p<0.01 vs vehicle

Question: For `O=C(O)CCCOc1ccc(Cl)c2c1C1(CCCCC1)NC(=O)N2` [5′-(3-(Carboxy)propoxy)-8′-chlorospiro[cyclohexane-1,4′-quinazolin]-2′(1′H)-one], which “effect on CCI-induced static allodynia” value [1, 3] is on record?
Answer: Its value is “reversed the maintenance of CCI-induced static and dynamic allodynia in a dose dependent manner”.

Question: And the “time of peak effect, static allodynia” value [1, 4]?
Answer: The value was 1 h.

Question: And the “MED for static allodynia” value [1, 5]?
Answer: The value was 1 mg/kg.

Question: What about the “static allodynia reversal, curve profile versus gabapentin” value [1, 6] of the same compound?
Answer: The value was “comparable to gabapentin”.

Question: And the “onset of anti-allodynic effect, static allodynia” value [1, 7]?
Answer: The value was 30 min.

Question: And the “effect on CCI-induced dynamic allodynia” value [2, 3]?
Answer: The value was “reversed the maintenance of CCI-induced static and dynamic allodynia in a dose dependent manner”.

Question: What about the “time of peak effect, dynamic allodynia” value [2, 4] of the same compound?
Answer: The value was 1 h.

Question: What about the “MED for dynamic allodynia” value [2, 5] of the same compound?
Answer: The value was 3 mg/kg.

Question: And the “dynamic allodynia effect versus gabapentin” value [2, 6]?
Answer: The value was “less potent but significantly different from vehicle treated CCI rats”.

Question: And the “dynamic allodynia, paw withdrawal latency (mean±SEM)” value ([2]; highest dose (3 mg/kg PO), 1 hrs post administration, vehicle treated CCI rats 3.7±0.7, latency recorded in sec, in s)?
Answer: The value was 10.2±1.4.

Question: And the “onset of anti-allodynic effect, dynamic allodynia” value [2, 7]?
Answer: Its value is 30 min.
